Reference: patent US11980648B2, “Compositions including ginsenoside 20(S)-Rg3 and methods of using ginsenoside 20(S)-Rg3 to inhibit alpha herpesvirus” (MIDDLE TENNESSEE STATE UNIVERSITY, priority 2020, dated 2024)
Where “and” joins values, the source holds several entries; their conditions need not be identical. Equal entries are not always repeated.

Tests used:
[1] = system: HSV-1; test: Virus inhibition, HSV-1 on Vero cells (PrestoBlue); format: cell-based, herpes simplex virus type 1 (MacIntyre strain); details: at the non-toxic concentration of Table 1; MOI 0.1; compound and virus added simultaneously; parentheses = greater cell death than virus alone
Description: (§1) Viruses and Quantification. Herpes simplex virus type 1 (HSV-1, MacIntyre strain, ATCC, VR-539) or herpes simplex virus type 2 (HSV-2, ATCC, VR-734) were used in these studies. Virus titer was determined by plaque assay. Briefly, following 2 hour-adsorption of various virus dilutions onto a Vero cell monolayer in a 24-well plate, the medium was removed and cells were overlaid with 1.5% carboxymethylcellulose (Sigma Chemical Company, St. Louis, Mo.) and incubated 48 hours at 37° C. with 5% CO2. After incubation, cells were fixed with methanol, stained with Giemsa (Sigma Chemical Company, St. Louis, Mo.) and plaques were counted. Each virus dilution was prepared in quadruplicate.
(§2) Cytotoxicity and Virus Inhibition. All ginsenosides, isomers, and protopanaxadiols were evaluated for toxic effects on Vero cells prior to anti-viral testing. Cells were seeded at 5000 cells/well in a black 96-well plate with clear bottom in a volume of 100 μL and allowed to attach for 24 hours. The P. ginseng compounds were prepared in DMSO at 100 μM and were taken through serial two-fold dilutions to determine the concentration when the rate of cell death was less than 10% compared to control, untreated cells. Each dilution was tested in three wells and all assays were repeated three times. Following a 48 hour-incubation at 37° C. in 5% CO2, 11 μL of PrestoBlue (Invitrogen, Carlsbad, Calif.) was added to each well and the plate was incubated for an additional 30 minutes. PrestoBlue determines cell viability by changing from blue to red as resazurin is reduced to resorufin by viable cells. Following the PrestoBlue incubation, fluorescence was determined by spectrophotometric reading using Soft Max Pro (Molecular Diagnostics, San Jose, Calif., USA).
(§3) For cytotoxicity testing, 4 μL of dilutions of the ginsenosides or protopanaxadiols were added to 396 μL of medium 199 and 100 μL of this mixture was added to each of three wells. For anti-viral testing, 4 μL of the non-toxic reagent and 4 μL of HSV-1 or HSV-2 diluted to an MOI of 0.1 were added to 392 μL of medium 199 and 100 μL of this mixture was added to each of three wells. Virus inhibition was determined by comparing the cell death of reagent-exposed cells with cell death of control cells only receiving virus. The 50% inhibitory concentration (IC50) was determined through a series of two-fold dilutions and calculation by linear regression analysis.

[2] = system: Vero cells; test: Cytotoxicity on Vero cells (PrestoBlue); format: cell-based; details: for Cytotoxicity (non-toxic concentration): concentration causing less than 10% cell death compared with controls, Vero cells, 48 hour incubation, tested from 100 μM in 2-fold dilutions
Description: Cells. Vero cells (American Type Culture Collection (ATCC), Manassas, VA, CCL-81) were maintained in medium 199 (Sigma Chemical Company, St. Louis, MO) that was supplemented with 8% fetal bovine serum (Invitrogen, Carlsbad, CA), 1.25 μg/mL fungizone (Invitrogen, Carlsbad, CA) and penicillin-streptomycin, 1000 U/mL and 1 mg/mL respectively (Sigma Chemical Company, St. Louis, MO). Cells were passed weekly using 0.1% trypsin (Sigma Chemical Company, St. Louis, MO) to detach the cells from the flasks. Cell quantification was done by trypan blue exclusion.
as §2, with “The P. ginseng compounds were prepared in DMSO at 100 μM and were taken through serial two-fold dilutions to determine the concentration when the rate of cell death was less than 10% compared to control, untreated cells.” left out
as §3

[3] = system: coxsackie B 3 virus; details: 100 μg/mL; cited from earlier work
[4] = system: human rhinovirus 3; details: 100 μg/mL; cited from earlier work
[5] = system: HSV-1; test: Plaque reduction of HSV-1 on Vero cell monolayer; format: cell-based, herpes simplex virus type 1 (MacIntyre strain); details: valacyclovir 16 μM, 20(S)-Rg3 50 μM, about 50 PFU/well, 48 hours
Description: as §1
The plaque assay procedure also was used to evaluate the percent plaque reduction; the only procedural change was that a constant virus concentration was used (50 plaque forming units (PFU)/well). Plaque reduction was measured by comparing the control (virus only), with valacyclovir (16 μM) with virus or 20(S)-Rg3 (50 μM) with virus. Sample wells were evaluated in quadruplicate. Following the 2 hour-virus adsorption, the methylcellulose-medium containing the same concentrations of valacyclovir or Rg3 was added to the appropriate wells. After 48 hours, plaques were fixed, stained and counted.

[6] = system: HSV-1; test: Time studies of HSV-1 inhibition (PrestoBlue); format: cell-based, herpes simplex virus type 1; details: Human alphaherpesvirus 1; HSV-1 incubated with compound 0 to 4 hours prior to addition to cells; valacyclovir 16 μM; read-out: percent inhibition of HSV-1
Description: Time Studies. For virus inhibition studies described above, reagent 20(S)-Rg3 and virus were added to cells simultaneously. To evaluate the potential mode of action of Rg3, various combinations of valacyclovir, Rg3 and HSV-1 were tested at different time periods. The following combinations were evaluated at both one hour and four hours: • Virus applied to cells first (for one hour or four hours), followed by addition of valacyclovir, Rg3 or both valacyclovir and Rg3 to the cells; • Valacyclovir or Rg3 or both valacyclovir and Rg3 applied to cells first (for one or four hours), followed by virus; • Valacyclovir or Rg3 incubated together with virus first for one or four hours then added to cells.
All procedures described for evaluation of virus inhibition were followed in identical fashion as outlined for the PrestoBlue procedure except valacyclovir was used at a constant concentration of 16 μM and 20(S)-Rg3 at 50 μM.

20(S)-Rh2
Percent Inhibition of HSV-1 [1]: 46.2%

CC(C)=CCC[C@@](C)(O)C1CC[C@]2(C)C1[C@H](O)CC1[C@@]3(C)CC[C@H](O[C@@H]4OC(CO)[C@@H](O)[C@@H](O)C4O[C@@H]4OC(CO)[C@@H](O)[C@@H](O)C4O)C(C)(C)C3CC[C@]12C (stereo partly drawn) [20(R)-Rg3, 20(R)-ginsenoside-Rg3]
Percent Inhibition of HSV-1 [1]: 22.7%

CC(C)=CCC[C@@](C)(O)[C@H]1CC[C@]2(C)[C@@H]1[C@H](O)C[C@@H]1[C@@]3(C)CC[C@H](O)C(C)(C)[C@@H]3CC[C@]12C [20(R)-protopanaxadiol, reference compound]
Cytotoxicity (non-toxic concentration) [2]: 12.5 µM | Percent Inhibition of HSV-1 [1]: 14.4%

CC(C)=CCC[C@](C)(O)[C@H]1CC[C@]2(C)[C@@H]1[C@H](O)C[C@@H]1[C@@]3(C)CC[C@H](O)C(C)(C)[C@@H]3CC[C@]12C [20(S)-protopanaxadiol, reference compound]
toxicity ([2]; 25 μM): non-toxic | Cytotoxicity (non-toxic concentration) [2]: 12.5 µM

CC(C)=CCC[C@](C)(O[C@@H]1O[C@H](CO[C@@H]2O[C@H](CO)[C@@H](O)[C@H](O)[C@H]2O)[C@@H](O)[C@H](O)[C@H]1O)[C@H]1CC[C@]2(C)[C@@H]1[C@H](O)C[C@@H]1[C@@]3(C)CC[C@H](O[C@@H]4O[C@H](CO)[C@@H](O)[C@H](O)[C@H]4O[C@@H]4O[C@H](CO)[C@@H](O)[C@H](O)[C@H]4O)C(C)(C)[C@@H]3CC[C@]12C [Rb1]
Percent Inhibition of HSV-1 [1]: 23% and 23.3%

CC(C)=CCC[C@](C)(O[C@@H]1O[C@H](CO[C@@H]2OC[C@H](O)[C@H](O)[C@H]2O)[C@@H](O)[C@H](O)[C@H]1O)[C@H]1CC[C@]2(C)[C@@H]1[C@H](O)C[C@@H]1[C@@]3(C)CC[C@H](O[C@@H]4O[C@H](CO)[C@@H](O)[C@H](O)[C@H]4O[C@@H]4O[C@H](CO)[C@@H](O)[C@H](O)[C@H]4O)C(C)(C)[C@@H]3CC[C@]12C [Rb2]
Percent Inhibition of HSV-1 [1]: 26.4%

CC(C)=CCC[C@](C)(O[C@@H]1O[C@H](CO[C@@H]2OC[C@@H](O)[C@H](O)[C@H]2O)[C@@H](O)[C@H](O)[C@H]1O)[C@H]1CC[C@]2(C)[C@@H]1[C@H](O)C[C@@H]1[C@@]3(C)CC[C@H](O[C@@H]4O[C@H](CO)[C@@H](O)[C@H](O)[C@H]4O[C@@H]4O[C@H](CO)[C@@H](O)[C@H](O)[C@H]4O)C(C)(C)[C@@H]3CC[C@]12C [Rb3]
Percent Inhibition of HSV-1 [1]: 30.9%

CC(C)=CCC[C@](C)(O[C@@H]1O[C@H](CO)[C@@H](O)[C@H](O)[C@H]1O)[C@H]1CC[C@]2(C)[C@@H]1[C@H](O)C[C@@H]1[C@@]3(C)CC[C@H](O)C(C)(C)[C@@H]3[C@@H](O[C@@H]3O[C@H](CO)[C@@H](O)[C@H](O)[C@H]3O)C[C@]12C [Rg1]
Percent Inhibition of HSV-1 [1]: 13.2%

CC(C)=CCC[C@](C)(O)[C@H]1CC[C@]2(C)[C@@H]1[C@H](O)C[C@@H]1[C@@]3(C)CC[C@H](O)C(C)(C)[C@@H]3[C@@H](O[C@@H]3O[C@H](CO)[C@@H](O)[C@H](O)[C@H]3O[C@@H]3O[C@@H](C)[C@H](O)[C@@H](O)[C@H]3O)C[C@]12C [Rg2]
effect on coxsackie B 3 virus [3]: inhibitory effects | effect on human rhinovirus 3 [4]: inhibitory effects

CC(C)[C@H](N)C(=O)OCCOCn1cnc2c(=O)[nH]c(N)nc21 [Valacyclovir, reference compound]
Percent Cell Death ([2]; African green monkey, 48 h, 16 μM): 1.2±0.4% | Percent Reduction of plaques compared to the control [5]: 85.7% | Number of Plaques ([5]; ± standard error): 8.1 ± 1.1 | inhibition at 16 µM [6]: 52.3 to 54.7%
